US12122802B2, “D-allose crystal and production method thereof” (MATSUTANI CHEMICAL INDUSTRY CO., LTD., priority 2019, dated 2024)

Legend:
Assay type in all cases: physicochemical
[1] = aspect ratio of crystals from microscopic picture (Digital microscope VHX-5000, 50x)
Source text: The “anhydrous D-allose crystals” of the present invention have an extremely large average particle size as described above and are not in a fine needle form, having a characteristic aspect ratio of the crystal. In the present invention, the aspect ratio refers to the ratio of the long diameter to the short diameter of a crystal (short diameter: minimum length of lines passing through the center of gravity of the plane shape of a crystal, long diameter: maximum length of a crystal measured orthogonal to the short diameter). In the present specification, the aspect ratio in a numerical range from A to B (A and B: arbitrary numbers) means that all of the aspect ratios of a specified number (preferably at least 10, for example 10) of crystal particles randomly selected are within the numerical range. Example of random selection of crystal particles includes a method comprising taking a microscopic picture of crystals at 20× to 50× magnification and, from the crystals on the diagonal line drawn from the upper left to the lower right of the microscopic picture taken, selecting 10 crystals with a full body shown in order from the upper left on the diagonal line. Specifically, the aspect ratio is preferably 1.0 to 10.0, more preferably 2.0 to 8.0, still more preferably 2.0 to 7.0. Next, the aspect ratio of the anhydrous D-allose crystals of the present invention was examined. Specifically, a microscopic picture of each of the anhydrous D-allose crystals obtained in the previous Test Nos. 1 to 5, 7 to 10 and 12 were taken using “Digital microscope VHX-5000” manufactured by KEYENCE Corporation (50×magnification). Among the crystals on the diagonal line drawn from the upper left to the lower right of the microscopic picture taken, 10 crystals with a full picture shown were selected in order from the upper left and then the long diameter and the short diameter of each crystal were measured for calculation of the aspect ratio (Long diameter/Short diameter, wherein short diameter refers to minimum length of lines passing through the center of gravity of the plane shape of a crystal, and long diameter refers to maximum length of a crystal measured orthogonal to the short diameter). The minimum value of the aspect ratio was 1.1 and the maximum value was 9.6 (Table 9).

[2] = particle size distribution by laser diffraction (Mastersizer 3000, dry dispersion unit Aero S); conditions: average of 5 measurements, dispersion pressure 1.0 bar
Source text: The melting point (Tm) in the DSC refers to the melting start temperature of the endothermic peak obtained by DSC measurement (temperature at the extrapolated intersection of the base line and the maximum slope line of the endothermic peak), and the melting enthalpy (ΔH) refers to the area of the endothermic peak (ASTM D3418-15, Standard Test Method for Transition Temperatures and Enthalpies of Fusion and Crystallization of Polymers by Differential Scanning calorimetry). Further, in the present invention, the average particle size refers to the volume-based average particle size d[4,3], which is usually measured with a laser diffraction particle size distribution analyzer.
Next, the particle size distribution of the anhydrous D-allose crystals of the present invention was examined. Specifically, the anhydrous D-allose crystals obtained in the previous Test Nos. 1 to 5, 7 to 10 and 12, were subjected to measurement of particle size distribution under the measurement conditions shown in Table 7 using “Mastersizer 3000” and a “dry dispersion unit Aero S” manufactured by Malvern Instruments. More specifically, the measurement was repeated 5 times, and the average value of the 5 times measurements was used. No great variability was seen among the 5 times measurement values. The particle size distribution was expressed on a volume basis, and the volume-based average particle size d[4,3] and standard deviation σ were recorded. Also, the coefficient of variation CV=σ/d[4,3] was calculated in order to relatively evaluate the variation in the particle size distribution.

[3] = repose angle measured by powder tester PT-E (fluidity of anhydrous D-allose crystals); conditions: for Repose angle (degrees): anhydrous crystals of Test Nos. 1 to 12, hydrous crystals dried with evaporator (30° C., 20 hPa (abs), about 2 hours), average of three directions
Experimental: The fluidity of the anhydrous D-allose crystals obtained by drying the hydrous crystals obtained in each of Tests Nos. 1 to 12 with an evaporator (30° C., 20 hPa (abs), about 2 hours) as described above was evaluated by the repose angle measured by a powder tester PT-E (manufactured by Hosokawa Micron Corporation). Specifically, a sample was dropped and deposited on a disk, and the inclination angle was measured from three directions to obtain an average value. From the average value, the degree of fluidity was evaluated according to Table 1 in the Japanese Pharmacopoeia, 17th edition, Reference Information G2 physical property-related “Powder Fluidity” (same as the so-called Carr's fluidity index table, shown as Table 4).
In order to measure the water content in the crystals obtained by each of the drying methods, drying under reduced pressure under conditions at 70° C. for 18 hours was performed to calculate the water content in the crystals from the weight loss through the drying under reduced pressure. The repose angle was measured by the method described above to determine the degree of fluidity. The yield rate was calculated by the following expression. Yield rate (%)=(D/C)×100 [Expression 4]

Structure (SMILES): O=C[C@H](O)[C@H](O)[C@H](O)[C@H](O)CO [Test No. 10, D-allose]
- Aspect ratio (Long diameter/Short diameter) ([1]; crystal ① of 10 selected, listed as 10): 1.6
- Aspect ratio (Long diameter/Short diameter) ([1]; crystal ② of 10 selected, listed as 10): 3.9
- Aspect ratio (Long diameter/Short diameter) ([1]; crystal ③ of 10 selected, listed as 10): 5.6
- Aspect ratio (Long diameter/Short diameter) ([1]; crystal ④ of 10 selected, listed as 10): 2.1
- Aspect ratio (Long diameter/Short diameter) ([1]; crystal ⑤ of 10 selected, listed as 10): 4.0
- Aspect ratio (Long diameter/Short diameter) ([1]; crystal ⑥ of 10 selected, listed as 10): 9.6
- Aspect ratio (Long diameter/Short diameter) ([1]; crystal ⑦ of 10 selected, listed as 10): 2.3
- Aspect ratio (Long diameter/Short diameter) ([1]; crystal ⑧ of 10 selected, listed as 10): 3.3
- Aspect ratio (Long diameter/Short diameter) ([1]; crystal ⑨ of 10 selected, listed as 10): 4.6
- Aspect ratio (Long diameter/Short diameter) ([1]; crystal ⑩ of 10 selected, listed as 10): 5.4
- d [4, 3] (volume-based average particle size) ([2]; listed as 10): 492 μm
- Repose angle (degrees) ([3]; listed as 10): 41.3 degrees

Structure (SMILES): O=C[C@H](O)[C@H](O)[C@H](O)[C@H](O)CO [Test No. 3, D-allose]
- Aspect ratio (Long diameter/Short diameter) ([1]; crystal ① of 10 selected, listed as 3): 2.5
- Aspect ratio (Long diameter/Short diameter) ([1]; crystal ② of 10 selected, listed as 3): 5.4
- Aspect ratio (Long diameter/Short diameter) ([1]; crystal ③ of 10 selected, listed as 3): 3.9
- Aspect ratio (Long diameter/Short diameter) ([1]; crystal ④ of 10 selected, listed as 3): 6.2
- Aspect ratio (Long diameter/Short diameter) ([1]; crystal ⑤ of 10 selected, listed as 3): 4.5
- Aspect ratio (Long diameter/Short diameter) ([1]; crystal ⑥ of 10 selected, listed as 3): 4.3
- Aspect ratio (Long diameter/Short diameter) ([1]; crystal ⑦ of 10 selected, listed as 3): 3.0
- Aspect ratio (Long diameter/Short diameter) ([1]; crystal ⑧ of 10 selected, listed as 3): 4.7
- Aspect ratio (Long diameter/Short diameter) ([1]; crystal ⑨ of 10 selected, listed as 3): 6.1
- Aspect ratio (Long diameter/Short diameter) ([1]; crystal ⑩ of 10 selected, listed as 3): 1.5
- d [4, 3] (volume-based average particle size) ([2]; listed as 3): 450 μm
- Repose angle (degrees) ([3]; listed as 3): 42.0 degrees

Structure (SMILES): O=C[C@H](O)[C@H](O)[C@H](O)[C@H](O)CO [Test No. 8, D-allose]
- Aspect ratio (Long diameter/Short diameter) ([1]; crystal ① of 10 selected, listed as 8): 3.5
- Aspect ratio (Long diameter/Short diameter) ([1]; crystal ② of 10 selected, listed as 8): 7.7
- Aspect ratio (Long diameter/Short diameter) ([1]; crystal ③ of 10 selected, listed as 8): 2.0
- Aspect ratio (Long diameter/Short diameter) ([1]; crystal ④ of 10 selected, listed as 8): 3.6
- Aspect ratio (Long diameter/Short diameter) ([1]; crystal ⑤ of 10 selected, listed as 8): 3.1
- Aspect ratio (Long diameter/Short diameter) ([1]; crystal ⑥ of 10 selected, listed as 8): 2.8
- Aspect ratio (Long diameter/Short diameter) ([1]; crystal ⑦ of 10 selected, listed as 8): 3.8
- Aspect ratio (Long diameter/Short diameter) ([1]; crystal ⑧ of 10 selected, listed as 8): 4.7
- Aspect ratio (Long diameter/Short diameter) ([1]; crystal ⑨ of 10 selected, listed as 8): 1.7
- Aspect ratio (Long diameter/Short diameter) ([1]; crystal ⑩ of 10 selected, listed as 8): 3.3
- d [4, 3] (volume-based average particle size) ([2]; listed as 8): 708 μm
- Repose angle (degrees) ([3]; listed as 8): 41.7 degrees

Structure (SMILES): O=C[C@H](O)[C@H](O)[C@H](O)[C@H](O)CO [Test No. 7, D-allose]
- Aspect ratio (Long diameter/Short diameter) ([1]; crystal ① of 10 selected, listed as 7): 7.2
- Aspect ratio (Long diameter/Short diameter) ([1]; crystal ② of 10 selected, listed as 7): 1.7
- Aspect ratio (Long diameter/Short diameter) ([1]; crystal ③ of 10 selected, listed as 7): 5.2
- Aspect ratio (Long diameter/Short diameter) ([1]; crystal ④ of 10 selected, listed as 7): 5.5
- Aspect ratio (Long diameter/Short diameter) ([1]; crystal ⑤ of 10 selected, listed as 7): 2.5
- Aspect ratio (Long diameter/Short diameter) ([1]; crystal ⑥ of 10 selected, listed as 7): 4.1
- Aspect ratio (Long diameter/Short diameter) ([1]; crystal ⑦ of 10 selected, listed as 7): 4.3
- Aspect ratio (Long diameter/Short diameter) ([1]; crystal ⑧ of 10 selected, listed as 7): 4.9
- Aspect ratio (Long diameter/Short diameter) ([1]; crystal ⑨ of 10 selected, listed as 7): 3.5
- Aspect ratio (Long diameter/Short diameter) ([1]; crystal ⑩ of 10 selected, listed as 7): 2.0
- d [4, 3] (volume-based average particle size) ([2]; listed as 7): 549 μm
- Repose angle (degrees) ([3]; listed as 7): 41.0 degrees
- Degree of fluidity ([3]; anhydrous crystals of Test Nos. 1 to 12, evaluated from repose angle according to Table 4): Passable (41~45)
